Source: US20060099712A1, “Correlation of anti-cancer activity of dyes with redox potentials” (Eastman Kodak Company, priority 2004, published 2006)
≈ marks a conversion by molar mass, not a printed value. Where “and” joins values, the source holds several entries; their conditions need not be identical. Equal values may be shown once. Read-outs that look alike come from different tables or passages of the source.

Assays:
[1] = test system: CV-1 Normal Monkey Kidney Epithelial; assay: Clonogenic dye screening assay, CV-1 cells (IC50); type: cell-based, African green monkey; conditions: for IC50: Primates; for CV (IC50 in the CV-1 cell line): 3 hrs treatment, unit from method b117-118
Description: CX-1 is a cancerous human colon adenocarcinoma cell line. CV-1 is a non-cancerous control, which is a kidney epithelial cell line from an African green monkey. IC50 is the dye concentration at which 50% of the cells are killed. Selectivity or kill ratio is defined as the ratio of […] at IC50 for both CX-1 and CV-1. A ratio with a high number indicates a high selectivity.
The dyes were screened in two cell lines. CX-1 is a human colon adenocarcinoma cell line. CV-1 is a kidney epithelial cell line from an African green monkey. CV-1 was used as a reference because no normal human epithelial cell line is available for clonogenic assay.
In the initial screen, dyes were examined at six different concentrations to generate a dose response curve. An IC50 value, the concentration at which 50% of the cells are killed, was then calculated. Initially, a dye concentration of 1.0 μg/mL was the highest examined for the CX-1 cell line and 0.005 μg/mL was the lower limit. The corresponding limits on the CV-1 cell line were […].
The screening procedure used a response curve that was determined from eight dye concentrations. The upper and lower limits of CX-1 were 0.32 and 0.0015 μg/mL, respectively, and the corresponding revised limits on CV-1 were 3.2 and 0.025 μg/mL. The screening results were reported by assigning an IC50 value to each dye for the CV-1 and CX-1 cell lines. These values will be referred to herein simply as CV and CX. The most desirable result would be to have a dye that was highly toxic to carcinoma cells but nontoxic to ‘normal’ cells. One measure of this type of selectivity is the ratio of the IC50's in the normal cell line to that in the carcinoma line, CV/CX.
Compounds are screened via an in vitro assay. CV-1 and CX-1 cells are seeded into separate assay plates. The plates are treated with varying concentrations of test compounds, rinsed, and colonies allowed to grow. IC50's are determined and drugs evaluated based on their selectivity and toxicity. Assay Steps: • I. Seeding Cells • II. Weighing • III. Preparation of Solution • IV. Treatment • V. Rinsing and Feeding • VI. Fixing • VII. IC50 Determination I. Seeding Cells
The cells should be seeded 16-30 hours before treatment. The media for CV-1 cells is DME+5% calf serum +5% Nuserum. The media for CX-1 cells is RPMI/DME (50/50)+5% calf serum +5% Nuserum.
(c) number of cells based on 2000 CX-1 cells/well and 1000 CV-1 cells/well. NOTE: Always make enough cell suspension for 1 extra plate to allow for volume loss during transfers.
• (a) For CV-1: 256 ug/ml-256 ul of 1 mg/ml stock +744 ul DMSO • (b) For CX-1: 25.6 ug/ml-100 ul of 256 ug/ml+900 ul DMSO IV. Treatment • 1. Each plate is treated with 4 test compounds, one positive control and one negative control. • 2. Serial dilutions of the compounds are made in the following way:
2 multi-well pipetters are used. One is set for 10 ul and one for 200 ul. Each is equipped with 6 tips spaced such that they fit into the 6 rows of a plate. 390 ul of media is added to the first column of each plate. 10 ul each of 4 compound solutions, a positive and a negative control are taken up and put into the first column of wells. The 200 ul pipetter is then placed in the same wells, pipetted up and down 3 times and two 200 ul aliquots are moved to the next column of wells. This column is pipetted up and down 3 times and 400 ul moved to column 3, etc. The final 400 ul excess from column 8 is discarded.
• 3. Label the plates along the front, each row −1 compound. • 4. Incubate the plates at 37° C. for 3 hrs. V. Rinsing • 1. Prepare several bottles of CX-1 and CV-1 media. • 2. Check for precipitate in first column of each plate and note. • 3. Starting with the plates treated first, rinse several plates at a time by aspirating the treatments and refilling each well with 0.5-1.0 ml of the rinse media. Aspirate and refill 2 more times for a total of 3 rinses. • 4.

[2] = test system: CX-1 Human Colon Carcinoma; assay: Clonogenic dye screening assay, CX-1 cells (IC50); type: cell-based; conditions: for IC50: Homo sapiens; for CV/CX (selectivity, kill ratio): ratio of IC50 in normal CV-1 line to IC50 in carcinoma CX-1 line; for CV/C: Table XXI, selectivity ratio, value of 1 where dye inactive; for CX (IC50 in the CX-1 cell line): 3 hrs treatment, unit from method b117-118; for Selectivity: Table 1, cell line not given, values equal CV/CX of Table II
In short: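 Cells seeded 16-30 h ahead (2000 CX-1 or 1000 CV-1 per well), exposed to serially diluted dyes for 3 h at 37 °C, rinsed three times, then grown into colonies. Eight-point curves spanned 0.32-0.0015 μg/mL (CX-1) and 3.2-0.025 μg/mL (CV-1). IC50 is the concentration killing 50% of cells.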

[3] = CV-1, 3 hrs treatment, colonies after 7-10 days, unit from method, read-out: CV (IC50 in the CV-1 cell line)
[4] = CX-1, 3 hrs treatment, colonies after 7-10 days, unit from method, read-out: CX (IC50 in the CX-1 cell line)
[5] = CV-1, Table XXI, oxathiacarbocyanine nitrogen substituents, CV-1 cells, read-out: CV
[6] = CX-1, Table XXI, oxathiacarbocyanine nitrogen substituents, CX-1 cells, read-out: CX
[7] = CV-1, read-out: CV (IC50 in the CV-1 cell line)
[8] = CX-1, read-out: CX (IC50 in the CX-1 cell line)

IC50 [2, 4] [µg/mL]	Structure (SMILES)	IC50 [1, 3] [µg/mL]	CV/CX (selectivity, kill ratio) [2]	other results
0.045	CCN1/C(=c2/s/c(=c3\s/c(=C\c4ccc5ccccc5[n+]4CC)n(CC)c3=O)n(CC)c2=O)Sc2ccccc21 [Dye D-108]	3.2	71.15	
0.1	CC[n+]1c(/C=C/C=C2\Sc3ccccc3N2CC#N)oc2ccccc21 [Dye D-124]	10	100	IC50 [1, 5]: 10 µg/mL; IC50 [2, 6]: 0.1 µg/mL; CV/C [2]: 100.0
	CCN1/C(=C/C(C)=C/c2sc3ccc4ccccc4c3[n+]2CC)Oc2ccc3ccccc3c21 [drawing 40|E|Me]		3.33 and 2.0	CV (IC50 in the CV-1 cell line) ([1]; colonies after 7-10 days): 0.1 µg/mL; CX (IC50 in the CX-1 cell line) ([2]; colonies after 7-10 days): 0.03 µg/mL and 0.05 µg/mL
	CC[n+]1c(/C=C/c2ccc(N(C)C)cc2)[te]c2ccc(C)cc21 [Dye D-156]		60	IC50 [1, 7]: 3 µg/mL; IC50 [2, 8]: 0.05 µg/mL
	CCSC(=C\c1oc2ccccc2[n+]1CC)/C=C1\Sc2ccccc2N1CC.[I-] [Dye D-142]			CV (IC50 in the CV-1 cell line) ([1]; colonies after 7-10 days): 0.5 µg/mL; CX (IC50 in the CX-1 cell line) ([2]; colonies after 7-10 days): <0.005 µg/mL
0.1	C(=C\c1cc[n+]2c3c(cccc13)Sc1ccccc1-2)/C=c1\ccn2c3ccccc3sc3cccc1c3-2 [Dye D-117]	7	70	
< 0.005	CC[n+]1c(/C=C/C=C2\OC=C(c3ccccc3)N2C)sc2ccccc21 [Dye D-145]	0.3	60	
	CCN1/C(=C(\C=C\c2oc3ccccc3[n+]2CC)c2ccccc2)Sc2ccccc21.[I-] [Dye D-139]		100	CV (IC50 in the CV-1 cell line) ([1]; colonies after 7-10 days): 3.0 µg/mL; CX (IC50 in the CX-1 cell line) ([2]; colonies after 7-10 days): 0.03 µg/mL
0.03	CCN1/C(=C\C=c2\s/c(=C/c3sc4ccccc4[n+]3CC)n(C)c2=O)Sc2ccccc21 [Dye D-111]	8	270 and 266.7	
< 0.005	CC[n+]1c(/C=C/C=C2\Sc3ccccc3N2C(C)C)oc2ccccc21 [Dye D-122]	0.4	80 and >80.0	IC50 [1, 5]: 0.4 µg/mL; IC50 [2, 6]: < 0.005 µg/mL; CV/C [2]: >80.0
0.05	CCC(/C=C1\Sc2ccc(Cl)cc2N1C)=C\c1oc2ccc(-c3ccccc3)cc2[n+]1C [Dye D-147]	8	160	
	CCN1/C(=C/C=c2\s/c(=C\c3sc4ccccc4[n+]3CC)n(CCC(=O)O)c2=O)Sc2ccccc21 [Dye D-167]	10	100.0	
0.009	CC[n+]1c(/C=C/C=C2/c3c(C)ccc(C)c3C(C)(Cc3ccccc3)N2C)sc2ccc3ccccc3c21 [Dye D-133]	3	333.5	Selectivity [2]: 333.5
	CCN1/C(=C/C=C/c2sc3ccccc3[n+]2CC)[Se]c2ccc(Cl)cc21 [Dye D-135]		>200.0 and 200	IC50 [1, 7]: 1 µg/mL; IC50 [2, 8]: < 0.005 µg/mL; Selectivity [2]: 200
	CCN1/C(=C/C=C/c2oc3ccccc3[n+]2CC)Sc2ccc(O)cc21.[I-] [Dye D-128]		60	CV (IC50 in the CV-1 cell line) ([1]; colonies after 7-10 days): 0.3 µg/mL
	CCN1/C(=C/C=C/C=C/c2sc3cc4ccccc4cc3[n+]2CC)Sc2cc3ccccc3cc21 [Dye D-162]	3	60	
	CCN1/C(=C/C(=C/c2oc3ccccc3[n+]2CC)SC)Sc2ccccc21.[I-] [Dye D-137]		100	CV (IC50 in the CV-1 cell line) ([1]; colonies after 7-10 days): 3.0 µg/mL; CX (IC50 in the CX-1 cell line) ([2]; colonies after 7-10 days): 0.03 µg/mL
0.03	CCN1/C(=C/C=C/c2oc3ccc(-c4ccccc4)cc3[n+]2CCOC(C)=O)Sc2ccccc21 [Dye D-153]	3	100	
0.035	CCN1/C(=C/C=C/c2sc3ccccc3[n+]2CCO)Sc2ccccc21 [Dye D-125]	> 3.2	>91.4	IC50 ([1]; CV-1, Table XX, thiacarbocyanine nitrogen substituents, CV-1 cells, read-out: CV): > 3.2 µg/mL; IC50 ([2]; CX-1, Table XX, thiacarbocyanine nitrogen substituents, CX-1 cells, read-out: CX): 0.035 µg/mL; CV/CX ([2]; Table XX, ratio given a value of 1 where dye inactive): 91.4
0.005	CN1/C(=C/c2ccc3ccc4ccccc4c3[n+]2C)Sc2ccccc21 [Dye D-130]	0.5	100	
	CCN1/C(=C/C=C/c2oc3ccc(SC)cc3[n+]2C)Sc2ccccc21.[I-] [Dye D-138]		>60.0 and 60	CV (IC50 in the CV-1 cell line) ([1]; colonies after 7-10 days): 0.3 µg/mL; CX (IC50 in the CX-1 cell line) ([2]; colonies after 7-10 days): <0.005 µg/mL
0.01	CCN(CC)CCN1/C(=C/C(C)=C/c2sc3ccccc3[n+]2CCN(CC)CC)Sc2ccccc21 [Dye D-121]	0.8	80	
≤ 0.004	CCN1/C(=C/C=C/c2sc3c([n+]2C)CCCC3)Sc2ccccc21 [Dye D-146]	0.3	75.0 and 60	
	CCN1/C(=C/C=C/c2oc3ccc(OC)cc3[n+]2CC)Sc2ccccc21.[I-] [Dye D-136]		>60.0 and 60	CV (IC50 in the CV-1 cell line) ([1]; colonies after 7-10 days): 0.3 µg/mL; CX (IC50 in the CX-1 cell line) ([2]; colonies after 7-10 days): <0.005 µg/mL
0.05	CCN1C(=O)/C(=C\C=C2/Oc3ccccc3N2CC)S/C1=N\c1sc2ccccc2[n+]1CC [Dye D-107]	3	60	
< 0.005	CCN1/C(=C/C=C/c2cc3scc([S-])[n+]3c3ccccc23)Oc2ccccc21 [Dye D-141]	0.5 (≈ 1.24 µM)	100	
	CCN1/C(=C/C=C/c2sc3ccccc3[n+]2CC)[Se]c2ccc(OC)cc21 [Dye D-134]		80	IC50 [1, 7]: 0.2 µg/mL; IC50 [2, 8]: 0.0025 µg/mL
0.05	CCN1/C(=C/C=C/c2sc3cc4ccccc4nc3[n+]2CC)Sc2ccc3ccccc3c21 [Dye D-114]	3	60	
0.007	CC[n+]1c(/C=C/C=C2/c3c(C)ccc(C)c3C(C)(Cc3ccccc3)N2C)sc2ccccc21 [Dye D-132]	3	430 and 428.57	IC50 ([1]; CV-1, Table XVI, unsymmetrical dyes, CV-1 cells, read-out: CV): 3 µg/mL; IC50 ([2]; CX-1, Table XVI, unsymmetrical dyes, CX-1 cells, read-out: CX): 0.007 µg/mL; Selectivity [2]: 428.57; CV/CX ([2]; Table XVI, selectivity ratio of IC50 values): 428.6
